Assay results as given in patent US8067015B2, “Methods and compositions for the treatment and prevention of Staphylococcus and other bacterial infections” (priority 1997, dated 2011).

Columns and labels:
Assay type in all cases: in vivo
[1] = system: S. epidermidis MSSE strain; assay: Rat subcutaneous Dacron graft infection model, MSSE strain; conditions: rats; for Bacterial concentration, MSSE: 2×10^7 bacteria, explanted day 7, mean ± SD
Method: (§1) Rats (Wistar adult males (300-350 g), n=15/experimental group) were anaesthetized, hair on their back shaved and the skin cleansed with 10% povidone-iodine solution. A subcutaneous pocket was made on the side of the median line by a 1.5 cm incision. Aseptically, 1 cm^2 sterile collagen-sealed Dacron graft (Albograft™, Sorin Biomedica Cardio, S.p.A., Saluggi VC, Italy) was implanted into the pocket. […] Pockets were closed by skin clips and 1 ml sterile saline solution with or without 2×10^7 bacteria was inoculated onto the graft surface using a tuberculin syringe to create a subcutaneous fluid-filled pocket. Some of the animals that had grafts soaked only with RIP or saline were injected intraperitoneally with antibiotics (cefazolin 30 mg/kg, imipenem 30 mg/kg, teicoplanin 10 mg/kg, levofloxacin 10 mg/kg). Grafts were explanted 7 days following implantation.
(§2) The explanted grafts were placed in sterile tubes, washed in sterile saline solution, placed in tubes containing 10 ml of phosphate-buffered saline solution and sonicated for 5 min to remove the adherent bacteria from the grafts. Quantitation of viable bacteria was performed by culturing serial 10-fold dilutions (0.1 ml) of the bacterial suspension on blood agar plates. All plates were incubated at 37° C. for 48 hr and evaluated for the presence of the strain. Bacteria were quantitated by counting the number of colony forming unites (CFU) per plate. To determine if bacteria were efficiently removed from the graft, washed and sonicated grafts were observed under a Nikon Eclipse E 600 optical microscope (Nikon Y-THS, Japan).
(§3) Quantitative culture results of the in vivo experiments were presented as mean+SD of the mean. Comparisons of the results were performed by the analysis of variance (ANOVA) on the log-transformed data. Statistical analysis was performed for in vitro adhesion assays using Student's t-Test by Microsoft Excel (Microsoft, Wash.). Significance was accepted when the P value was <0.05.
(§4) To test if RIP can prevent graft-associated infections, Dacron grafts were coated with or without RIP, and with or without various types of antibiotics (for local prophylaxis experiments). Coated grafts were implanted in rats, bacteria injected into the implants, implants removed after a week, and bacterial load determined. Alternatively, Dacron grafts were first coated with RIP, bacteria injected, and antibiotics were administered by the intraperitoneal route (for parenteral prophylaxis experiments). As a negative control, grafts were implanted without local or parenteral RIP/antibiotics prophylaxis and no bacteria were injected. As a positive control, grafts were implanted, bacteria were injected, but no RIP/antibiotics prophylaxis was given.
(§5) Animals (15/group) received a Dacron-graft implanted in a subcutaneous pocket. Graft was subsequently infected with either S. epidermidis (tested on MSSE, MRSE and GISE) or with S. aureus (tested on MSSA, MRSA and GISA). […]

[2] = system: S. epidermidis MRSE strain; assay: Rat subcutaneous Dacron graft infection model, MRSE strain; conditions: rats; for Bacterial concentration, MRSE: 2×10^7 bacteria, explanted day 7, mean ± SD
Method: as §1, §2, §3, §4
Animals (15/group) received a Dacron-graft implanted in a subcutaneous pocket. Graft was subsequently infected with either S. epidermidis (tested on MSSE, MRSE and GISE) or with S. aureus (tested on MSSA, MRSA and GISA). The Dacron-graft prior to implantation was soaked in saline with or without 20 mg/l of RIP and some animals received […] of RIP i.p. as a prophylaxis treatment.

[3] = system: S. epidermidis GISE strain; assay: Rat subcutaneous Dacron graft infection model, GISE strain; conditions: rats; for Bacterial concentration, GISE: 2×10^7 bacteria, explanted day 7, mean ± SD
Method: as §1, §2, §3, §4, §5

[4] = B. Parenteral prophylaxis: antibiotic intraperitoneally (cefazolin 30, imipenem 30, teicoplanin 10, levofloxacin 10 mg/kg), RIP as 10 mg/l graft soak
[5] = A. Local prophylaxis: graft soaked 20 min in RIP 10 mg/l and/or antibiotic (mupirocin 100, quinupristin-dalfopristin 50, levofloxacin 30, rifampin 5 mg/l)
[6] = peptide-soaked/coated Dacron graft (RIP 10 mg/l), no antibiotic, day 7

Compound: Cc1nnc(SCC2=C(C(=O)O)N3C(=O)[C@@H](NC(=O)Cn4cnnn4)[C@H]3SC2)s1 [Cefazolin, cefazolin]
- Bacterial concentration, MSSE [1, 4]: 0.64 ± 0.19 ×10^4 CFU/ml
- Bacterial concentration, MRSE [2, 4]: 370 ± 120 ×10^4 CFU/ml
- Bacterial concentration, GISE [3, 4]: 590 ± 200 ×10^4 CFU/ml

Compound: C[C@@H](O)[C@H]1C(=O)N2C(C(=O)O)=C(SCCN=CN)C[C@H]12 [Imipenem, imipenem]
- Bacterial concentration, MSSE [1, 4]: 0.73 ± 0.2 ×10^4 CFU/ml
- Bacterial concentration, MRSE [2, 4]: 4 ± 1.8 ×10^4 CFU/ml
- Bacterial concentration, GISE [3, 4]: 89 ± 36 ×10^4 CFU/ml

Compound: C[C@H]1COc2c(N3CCN(C)CC3)c(F)cc3c(=O)c(C(=O)O)cn1c23 [Levofloxacin, levofloxacin]
- Bacterial concentration, MSSE [1, 5]: 4.2 ± 2.1 ×10^4 CFU/ml
- Bacterial concentration, MSSE [1, 4]: 3.5 ± 1.1 ×10^4 CFU/ml
- Bacterial concentration, MRSE [2, 5]: 6.8 ± 2.5 ×10^4 CFU/ml
- Bacterial concentration, MRSE [2, 4]: 3.9 ± 1.4 ×10^4 CFU/ml
- Bacterial concentration, GISE [3, 5]: 280 ± 40 ×10^4 CFU/ml
- Bacterial concentration, GISE [3, 4]: 480 ± 170 ×10^4 CFU/ml

Compound: C/C(=C\C(=O)OCCCCCCCCC(=O)O)C[C@@H]1OC[C@H](C[C@@H]2O[C@H]2[C@@H](C)[C@H](C)O)[C@@H](O)[C@H]1O [Mupirocin, mupirocin]
- Bacterial concentration, MSSE [1, 5]: 0.064 ± 0.015 ×10^4 CFU/ml
- Bacterial concentration, MRSE [2, 5]: 0.035 ± 0.014 ×10^4 CFU/ml
- Bacterial concentration, GISE [3, 5]: 0.07 ± 0.018 ×10^4 CFU/ml

Compound: CO[C@H]1/C=C/O[C@@]2(C)Oc3c(C)c(O)c4c(O)c(c(/C=N/N5CCN(C)CC5)c(O)c4c3C2=O)NC(=O)/C(C)=C\C=C\[C@H](C)[C@H](O)[C@@H](C)[C@@H](O)[C@@H](C)[C@H](OC(C)=O)[C@@H]1C [Rifampicin, rifampin]
- Bacterial concentration, MSSE [1, 5]: 0.73 ± 0.2 ×10^4 CFU/ml
- Bacterial concentration, MRSE [2, 5]: 0.8 ± 0.37 ×10^4 CFU/ml
- Bacterial concentration, GISE [3, 5]: 84 ± 27 ×10^4 CFU/ml

Compound: YKPETNF [inactive RIP peptide analogue]
- Quantitative culture results of explanted graft, MSSE strain [1, 6]: 5.4×10^6±8×10^5 CFU/ml
- Quantitative culture results of explanted graft, MRSE strain [2, 6]: 7.08×10^6±2.1×10^6 CFU/ml
- Quantitative culture results of explanted graft, GISE strain [3, 6]: 6.52×10^6±3×10^6 CFU/ml

Compound: quinupristin-dalfopristin
- Bacterial concentration, MSSE [1, 5]: 0.0026 ± 0.0003 ×10^4 CFU/ml
- Bacterial concentration, MRSE [2, 5]: 0.0048 ± 0.001 ×10^4 CFU/ml
- Bacterial concentration, GISE [3, 5]: 0.0069 ± 0.0013 ×10^4 CFU/ml

Compound: teicoplanin
- Bacterial concentration, MSSE [1, 4]: 0.0084 ± 0.0004 ×10^4 CFU/ml
- Bacterial concentration, MRSE [2, 4]: 0.072 ± 0.008 ×10^4 CFU/ml
- Bacterial concentration, GISE [3, 4]: 57 ± 24 ×10^4 CFU/ml
